Measured values as given in patent publication US11957759B1, “Rapidly accelerated fibrosarcoma (RAF) degrading compounds and associated methods of use” (Arvinas Operations, Inc., priority 2022, dated 2024).

What was measured:
B-RAF V600E = biological target: T1, B-RAF V600E (Homo sapiens, UniProt P15056, V600E); experiment: Target protein degradation, assay A: T-Rex 293 cells, HA-B-RAF_V600E, 96 well format; type: cell-based; settings: T-Rex 293 HA-B-RAF_V600E cells, 24 hours, Examples 1-82
T1 construct: expressed in transfected cells; host or cells: T-Rex 293 cells (Invitrogen #R71007)
Procedure, shortened: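 T-Rex 293 cells stably expressing doxycycline-inducible HA-B-RAF V600E (1 ng/mL doxycycline) treated 24 h at 37 °C with compound, final 1 μM to 0.1 nM in 0.1% DMSO. Fixed, permeabilized cells immunostained for HA and imaged by high-content microscopy; DC50 and Dmax (% of control) reported.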

B-RAF G466V = biological target: T2, B-RAF G466V (Homo sapiens, UniProt P15056, G466V); experiment: Target protein degradation, assay B: T-Rex 293 cells, HA-B-RAF_G466V, 96 well format; type: cell-based; settings: T-Rex 293 HA-B-RAF_G466V cells, 24 hours, Examples 1-82
T2 construct: expressed in transfected cells; host or cells: T-Rex 293 cells (Invitrogen #R71007)
Experimental: B. T-Rex 293 Cells (96 Well Format)
T-Rex 293 cells were purchased from Invitrogen (#R71007), and stably transfected with a pcDNA4/TO_HA-B-RAF_G466V construct, using 400 ug Zeocin for selection. G466V cells are plated in ulbecco's Modified Eagle Medium (DMEM; Gibco #11965118) containing 10% fetal bovine serum (FBS; Gibco #16000044) and 0.75 ng/mL doxycycline (Selleckchem #4163) at a density of 5,000 cells/well in 50 μl on poly-D-lysine (PDL) coated, black clear bottom 96-well plates (Corning #354640) and incubated for 24 hours at 37° C. with 5% CO2. The following day 50 ul of tested compound was added at 2× concentration in DMEM with a final concentration ranging from 30 nM to 3 pM in 0.1% dimethylsulfoxide (DMSO), and incubated for 24 hours at 37° C. with 5% CO2. At the end of the experimental treatment, the media was flicked off and cells washed once with phosphate-buffered saline (PBS)++(PBS with CaCl and MgCl) and gently replacing with 200 μl PBS++ per well. The PBS++ was removed and 50 uL 4% paraformaldehyde (PFA; EMS #15710) in PBS++ was added, and incubate at room temperature for 15 minutes. Cells were washed once with PBS++ and 50 uL 0.1% Triton X-100 (Fisher #BP151-500) in PBS++ was added. Plate was incubate for 5 minutes at room temperature. Cells were was once with PBS++. Cells were blocked with 100 uL Licor blocking buffer (Licor #927-50000) for 1 hour at room temperature. Next, 50 uL of HA antibody (CST #3724) at 1:1000 in Licor blocking buffer was added, and the plate icubate overnight at 4° C. The plates were parafilmed to prevent evaporation. Plate was washed three times with 200 uL PBS++. Fifty microliters of HCS secondary antibody solution [1:1000 Hoechst (Invitrogen #H3570), 1:1000 phalloidin (Invitrogen #A22287) and 1:5000 Alexa fluor (Invitrogen #A11008)] was added and incubated for 1 hour. Plate was wash three times with 200 uL PBS++, and imaged on a high content reader (ImageXpress Micro XLS, Molecular Devices).
The concentration of an exemplary compound that leads to half maximal degradation (DC50) as well as the maximum degradation observed (Dmax, conventionally expressed as a percentage of control) is shown below in Table 2.

T2 sequence (P15056 whole entry G466V): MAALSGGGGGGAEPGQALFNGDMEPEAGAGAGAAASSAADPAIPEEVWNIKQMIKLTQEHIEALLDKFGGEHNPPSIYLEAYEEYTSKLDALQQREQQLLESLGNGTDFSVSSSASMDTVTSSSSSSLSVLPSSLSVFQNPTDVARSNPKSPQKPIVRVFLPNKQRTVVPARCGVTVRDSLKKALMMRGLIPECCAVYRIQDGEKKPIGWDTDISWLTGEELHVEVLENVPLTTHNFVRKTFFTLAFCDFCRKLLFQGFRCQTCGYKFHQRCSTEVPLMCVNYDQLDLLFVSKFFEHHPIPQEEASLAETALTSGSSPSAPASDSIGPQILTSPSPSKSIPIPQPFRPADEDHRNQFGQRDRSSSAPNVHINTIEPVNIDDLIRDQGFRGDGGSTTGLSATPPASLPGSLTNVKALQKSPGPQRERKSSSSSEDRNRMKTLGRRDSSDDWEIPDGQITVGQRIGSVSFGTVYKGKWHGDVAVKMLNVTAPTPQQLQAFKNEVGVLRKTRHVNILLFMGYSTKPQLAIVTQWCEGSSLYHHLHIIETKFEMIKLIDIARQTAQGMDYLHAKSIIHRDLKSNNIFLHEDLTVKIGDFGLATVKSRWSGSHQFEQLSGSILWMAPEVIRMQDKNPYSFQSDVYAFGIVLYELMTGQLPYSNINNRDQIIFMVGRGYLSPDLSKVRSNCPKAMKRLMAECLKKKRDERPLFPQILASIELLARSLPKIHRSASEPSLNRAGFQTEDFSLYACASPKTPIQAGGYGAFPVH
T1 sequence (P15056 whole entry V600E): as the sequence (P15056 whole entry G466V) above, with V466G, V600E counted along it

DC50 (B-RAF V600E)	Dmax (B-RAF V600E)	DC50 (B-RAF G466V)	Dmax (B-RAF G466V)	SMILES
50 to 500 nM	35 to 70%	1 to 10 nM	35 to 70%	N#Cc1c(NS(=O)(=O)N2CC[C@@H](F)C2)ccc(F)c1Oc1ccc2ncn(-c3ccc(N4CCN(C(=O)CC5(O)CCN(c6ccc(C7CCC(=O)NC7=O)cc6F)CC5)CC4)nc3)c(=O)c2c1 (stereo partly drawn) [Example 69, (3R)-N-{2-cyano-3-[(3-{6-[4-(2-{1-[4-(2,6-dioxopiperidin-3-yl)-2-fluorophenyl]-4-hydroxypiperidin-4-yl}acetyl)piperazin-1-yl]pyridin-3-yl}-4-oxo-3,4-dihydroquinazolin-6-yl)oxy]-4-fluorophenyl}-3-fluoropyrrolidine-1-sulfonamide]
50 to 500 nM	35 to 70%	1 to 10 nM	≤ 35%	N#Cc1c(NS(=O)(=O)N2CC[C@@H](F)C2)ccc(F)c1Oc1ccc2ncn(-c3ccc(N4CCN(C(=O)CC5(O)CCN(c6ccc(NC7CCC(=O)NC7=O)cc6F)CC5)CC4)nc3)c(=O)c2c1 (stereo partly drawn) [Example 70, (3R)-N-(2-cyano-3-{[3-(6-{4-[2-(1-{4-[(2,6-dioxopiperidin-3-yl)amino]-2-fluorophenyl}-4-hydroxypiperidin-4-yl)acetyl]piperazin-1-yl}pyridin-3-yl)-4-oxo-3,4-dihydroquinazolin-6-yl]oxy}-4-fluorophenyl)-3-fluoropyrrolidine-1-sulfonamide]
> 500 nM		> 30 nM		N#Cc1c(NS(=O)(=O)N2CC[C@@H](F)C2)ccc(F)c1Oc1ccc2ncn(-c3ccc(N4CCN(c5ccc6c(c5)C(=O)N(C5CCC(=O)NC5=O)C6=O)CC4)cc3)c(=O)c2c1 (stereo partly drawn) [Example 71, (3R)-N-(2-cyano-3-{[3-(4-{4-[2-(2,6-dioxopiperidin-3-yl)-1,3-dioxo-2,3-dihydro-1H-isoindol-5-yl]piperazin-1-yl}phenyl)-4-oxo-3,4-dihydroquinazolin-6-yl]oxy}-4-fluorophenyl)-3-fluoropyrrolidine-1-sulfonamide]
> 500 nM		> 30 nM		N#Cc1c(NS(=O)(=O)N2CC[C@@H](F)C2)ccc(F)c1Oc1ccc2ncn(-c3ccc(N4CCN(c5ccc(C(=O)NC6CCC(=O)NC6=O)c(F)c5)CC4)cc3)c(=O)c2c1 (stereo partly drawn) [Example 72, 4-[4-(4-{6-[2-cyano-6-fluoro-3-({[(3R)-3-fluoropyrrolidin-1-yl]sulfonyl}amino)phenoxy]-4-oxo-3,4-dihydroquinazolin-3-yl}phenyl)piperazin-1-yl]-N-(2,6-dioxopiperidin-3-yl)-2-fluorobenzamide]
5 to 50 nM	35 to 70%	1 to 10 nM	35 to 70%	N#Cc1c(NS(=O)(=O)N2CC[C@@H](F)C2)ccc(F)c1Oc1ccc2ncn(-c3ccc(N4CCN(CC5CCN(c6ccc7c(c6F)CN([C@H]6CCC(=O)NC6=O)C7=O)CC5)CC4)cc3)c(=O)c2c1 [Example 73, (3R)—N-(2-cyano-3-{[3-(4-{4-[(1-{2-[(3S)-2,6-dioxopiperidin-3-yl]-4-fluoro-1-oxo-2,3-dihydro-1H-isoindol-5-yl}piperidin-4-yl)methyl]piperazin-1-yl}phenyl)-4-oxo-3,4-dihydroquinazolin-6-yl]oxy}-4-fluorophenyl)-3-fluoropyrrolidine-1-sulfonamide]
50 to 500 nM	35 to 70%	1 to 10 nM	≤ 35%	N#Cc1c(NS(=O)(=O)N2CC[C@@H](F)C2)ccc(F)c1Oc1ccc2ncn(-c3ccc(N4CCN(CC5CCN(c6cccc7c6ccn7C6CCC(=O)NC6=O)CC5)CC4)cc3)c(=O)c2c1 (stereo partly drawn) [Example 74, (3R)—N-{2-cyano-3-[(3-{4-[4-({1-[1-(2,6-dioxopiperidin-3-yl)-1H-indol-4-yl]piperidin-4-yl}methyl)piperazin-1-yl]phenyl}-4-oxo-3,4-dihydroquinazolin-6-yl)oxy]-4-fluorophenyl}-3-fluoropyrrolidine-1-sulfonamide]
50 to 500 nM	35 to 70%	1 to 10 nM	≤ 35%	N#Cc1c(NS(=O)(=O)N2CC[C@@H](F)C2)ccc(F)c1Oc1ccc2ncn(-c3ccn(C4CCN(CC5CCN(c6ccc7c(c6)CN(C6CCC(=O)NC6=O)C7=O)CC5)CC4)n3)c(=O)c2c1 (stereo partly drawn) [Example 75, (3R)—N-{2-cyano-3-[(3-{1-[1-({1-[2-(2,6-dioxopiperidin-3-yl)-1-oxo-2,3-dihydro-1H-isoindol-5-yl]piperidin-4-yl}methyl)piperidin-4-yl]-1H-pyrazol-3-yl}-4-oxo-3,4-dihydroquinazolin-6-yl)oxy]-4-fluorophenyl}-3-fluoropyrrolidine-1-sulfonamide]
5 to 50 nM	35 to 70%	1 to 10 nM	≤ 35%	N#Cc1c(NS(=O)(=O)N2CC[C@@H](F)C2)ccc(F)c1Oc1ccc2ncn(-c3ccc(N4CCN(CC5CN(c6ccc7c(c6)CN([C@H]6CCC(=O)NC6=O)C7=O)C5)CC4)cc3)c(=O)c2c1 [Example 76, (3R)—N-(2-cyano-3-{[3-(4-{4-[(1-{2-[(3S)-2,6-dioxopiperidin-3-yl]-1-oxo-2,3-dihydro-1H-isoindol-5-yl}azetidin-3-yl)methyl]piperazin-1-yl}phenyl)-4-oxo-3,4-dihydroquinazolin-6-yl]oxy}-4-fluorophenyl)-3-fluoropyrrolidine-1-sulfonamide]
50 to 500 nM	35 to 70%	1 to 10 nM	35 to 70%	N#Cc1c(NS(=O)(=O)N2CC[C@@H](F)C2)ccc(F)c1Oc1ccc2ncn(-c3ccc(N4CCN(CC5CCN(c6ccc7c(c6)CN([C@H]6CCC(=O)NC6=O)C7=O)CC5)CC4)cc3)c(=O)c2c1 [Example 77, (3R)—N-(2-cyano-3-{[3-(4-{4-[(1-{2-[(3S)-2,6-dioxopiperidin-3-yl]-1-oxo-2,3-dihydro-1H-isoindol-5-yl}piperidin-4-yl)methyl]piperazin-1-yl}phenyl)-4-oxo-3,4-dihydroquinazolin-6-yl]oxy}-4-fluorophenyl)-3-fluoropyrrolidine-1-sulfonamide]
5 to 50 nM	35 to 70%	1 to 10 nM	35 to 70%	Cn1c(=O)n(C2CCC(=O)NC2=O)c2ccc(N3CCC(CN4CCN(c5ccc(-n6cnc7ccc(Oc8c(F)ccc(NS(=O)(=O)N9CC[C@@H](F)C9)c8C#N)cc7c6=O)cc5)CC4)CC3)cc21 (stereo partly drawn) [Example 78, (3R)—N-{2-cyano-3-[(3-{4-[4-({1-[1-(2,6-dioxopiperidin-3-yl)-3-methyl-2-oxo-2,3-dihydro-1H-1,3-benzodiazol-5-yl]piperidin-4-yl}methyl)piperazin-1-yl]phenyl}-4-oxo-3,4-dihydroquinazolin-6-yl)oxy]-4-fluorophenyl}-3-fluoropyrrolidine-1-sulfonamide]
50 to 500 nM	35 to 70%	≤ 1 nM	35 to 70%	N#Cc1c(NS(=O)(=O)N2CC[C@@H](F)C2)ccc(F)c1Oc1ccc2ncn(-c3ccc(N4CCC(CN5CCC(c6ccc7c(c6F)CN(C6CCC(=O)NC6=O)C7=O)CC5)CC4)cc3)c(=O)c2c1 (stereo partly drawn) [Example 79, (3R)—N-{2-cyano-3-[(3-{4-[4-({4-[2-(2,6-dioxopiperidin-3-yl)-4-fluoro-1-oxo-2,3-dihydro-1H-isoindol-5-yl]piperidin-1-yl}methyl)piperidin-1-yl]phenyl}-4-oxo-3,4-dihydroquinazolin-6-yl)oxy]-4-fluorophenyl}-3-fluoropyrrolidine-1-sulfonamide]
50 to 500 nM	35 to 70%	1 to 10 nM	≤ 35%	N#Cc1c(NS(=O)(=O)N2CC[C@@H](F)C2)ccc(F)c1Oc1ccc2ncn(-c3ccc(N4CCC(OC5CCN(c6ccc7c(c6)CN(C6CCC(=O)NC6=O)C7=O)CC5)CC4)cc3)c(=O)c2c1 (stereo partly drawn) [Example 82, (3R)—N-{2-cyano-3-[(3-{4-[4-({1-[2-(2,6-dioxopiperidin-3-yl)-1-oxo-2,3-dihydro-1H-isoindol-5-yl]piperidin-4-yl}oxy)piperidin-1-yl]phenyl}-4-oxo-3,4-dihydroquinazolin-6-yl)oxy]-4-fluorophenyl}-3-fluoropyrrolidine-1-sulfonamide]
